From US20250186541A1, “DLL3 TARGETING PEPTIDES AND CONSTRUCTS THEREOF” (MARIANA ONCOLOGY INC., priority 2023, published 2025)
Numbered stars: 1 amine (or outer) side, 2 acyl side, 3 side chain; on linkers, the order of the positions; unused ones are H or OH. Bridge positions count the residues as written; N and C are the ends. Square brackets hold non-standard residues; d marks the D form. Peptide text beside a SMILES is read from it. * marks the point of attachment. Ala(piperidin-4-yl) = O=C([C@H](CC1CCN([*:3])CC1)N[*:1])[*:2]; DOTA = O=C(O)CN1CCN(CC(=O)O)CCN(CC(=O)*)CCN(CC(=O)O)CC1; 1Nal = N[C@@H](Cc1cccc2ccccc12)C(=O)O; 2Nal = N[C@@H](Cc1ccc2ccccc2c1)C(=O)O; oXylylene = c1ccc(C[*:2])c(C[*:1])c1; Gly(cPent) = N[C@H](C(=O)O)C1CCCC1; pXylylene = c1cc(C[*:2])ccc1C[*:1]; Ala(cPr) = N[C@@H](CC1CC1)C(=O)O; tBuAla = CC(C)(C)C[C@H](N)C(=O)O; 3Pal = N[C@@H](Cc1cccnc1)C(=O)O; 4Pal = N[C@@H](Cc1ccncc1)C(=O)O; Chg = N[C@H](C(=O)O)C1CCCCC1; αMeP = C[C@@]1(C(=O)O)CCCN1

Target: T1, human DLL3 (Homo sapiens, UniProt Q9NYJ7)
T1 construct: biotin (biotinylated)
T1 sequence (Q9NYJ7 27-618): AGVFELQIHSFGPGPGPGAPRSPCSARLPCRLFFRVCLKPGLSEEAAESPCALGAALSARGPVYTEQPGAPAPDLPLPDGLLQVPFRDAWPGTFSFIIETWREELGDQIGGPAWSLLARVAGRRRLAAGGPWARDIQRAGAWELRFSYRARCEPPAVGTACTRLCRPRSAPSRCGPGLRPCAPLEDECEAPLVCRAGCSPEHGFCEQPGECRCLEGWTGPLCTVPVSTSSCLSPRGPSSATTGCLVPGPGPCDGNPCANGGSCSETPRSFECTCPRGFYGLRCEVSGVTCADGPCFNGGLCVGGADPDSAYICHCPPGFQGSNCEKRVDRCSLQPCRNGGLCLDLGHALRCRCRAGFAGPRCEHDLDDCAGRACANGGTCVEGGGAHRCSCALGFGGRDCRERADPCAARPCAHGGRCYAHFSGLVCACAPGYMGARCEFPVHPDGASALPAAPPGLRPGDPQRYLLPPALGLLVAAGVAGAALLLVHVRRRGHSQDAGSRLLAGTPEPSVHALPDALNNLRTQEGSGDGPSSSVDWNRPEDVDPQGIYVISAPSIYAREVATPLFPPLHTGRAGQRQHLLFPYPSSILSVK
Assay: Affinity determination by Surface Plasmon Resonance (SPR), Biacore, 1:1 binding model
Conditions: biotinylated human DLL3 on streptavidin chip, 25° C.; NB = nonbinding
Summary of the method: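 SPR with biotinylated human DLL3 captured on a streptavidin chip, with a reference surface subtracted. Samples were injected at several concentrations at 100 μL/min in phosphate buffer with 137 mM NaCl, 2.7 mM KCl, 0.05% P20 and 2% DMSO. Kinetic and affinity constants came from a 1:1 binding fit.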

Compared with `CC(=O)N[C@H](C(=O)N[C@@H](CO)C(=O)N[C@@H](CC(=O)O)C(=O)N[C@H]1CSSC[C@@H](C(=O)N2CCC[C@@]2(C)C(=O)N[C@@H](Cc2cccnc2)C(=O)N[C@@H](CC(=O)O)C(=O)N[C@H](CCCCNC(=O)CN2CCN(CC(=O)O)CCN(CC(=O)O)CCN(CC(=O)O)CC2)C(N)=O)NC(=O)[C@H](CC(N)=O)NC(=O)[C@H](Cc2c[nH]c3ccccc23)NC(=O)[C@H](CCC(N)=O)NC(=O)[C@H](CC(C)C)NC(=O)[C@H](Cc2cccc3ccccc23)NC1=O)C1CCCCC1` [compound 136, Ac-(Chg)-S-D-C(3)-(1Nal)-L-Q-W-N-C(3)-(aMe-P)-(3Pya)-D-[D-Lys(DOTA)]-NH2] (Ac-[Chg]SDC[1Nal]LQWNC[αMeP][3Pal]D[dK](DOTA)-NH2; disulfide 4-10), `CC(=O)N[C@H](C(=O)N[C@@H](CO)C(=O)N[C@@H](CC(=O)O)C(=O)N[C@H]1CSSC[C@@H](C(=O)N2CCC[C@@]2(C)C(=O)N[C@@H](Cc2ccncc2)C(=O)N[C@@H](CC(=O)O)C(=O)N[C@H](CCCCNC(=O)CN2CCN(CC(=O)O)CCN(CC(=O)O)CCN(CC(=O)O)CC2)C(N)=O)NC(=O)[C@H](CC(N)=O)NC(=O)[C@H](Cc2c[nH]c3ccccc23)NC(=O)[C@H](CCC(N)=O)NC(=O)[C@H](CC(C)C)NC(=O)[C@H](Cc2cccc3ccccc23)NC1=O)C1CCCCC1` [compound 137, Ac-(Chg)-S-D-C(3)-(1Nal)-L-Q-W-N-C(3)-(aMe-P)-(4Pya)-D-[D-Lys(DOTA)]-NH2] (Ac-[Chg]SDC[1Nal]LQWNC[αMeP][4Pal]D[dK](DOTA)-NH2; disulfide 4-10) is higher in Kd: 21.7 nM for the first, > 30 nM for the second. The first binds more tightly here.

`CC(=O)N[C@H](CO)C(=O)N[C@@H](CC(=O)O)C(=O)N[C@H]1CSSC[C@@H](C(=O)N2CCC[C@@]2(C)C(=O)N[C@@H](Cc2ccccc2)C(=O)N[C@@H](CC(=O)O)C(=O)N[C@H](CCCCNC(=O)CN2CCN(CC(=O)O)CCN(CC(=O)O)CCN(CC(=O)O)CC2)C(N)=O)NC(=O)[C@H](CC(N)=O)NC(=O)[C@H](Cc2c[nH]c3ccccc23)NC(=O)[C@H](CCC(N)=O)NC(=O)[C@H](C2CCCCC2)NC(=O)[C@H](Cc2cccc3ccccc23)NC1=O` [compound 138, Ac-(D-Ser)-D-C(3)-(1Nal)-(Chg)-Q-W-N-C(3)-(aMe-P)-F-D-D-Lys(DOTA)-CONH2] (Ac-[dS]DC[1Nal][Chg]QWNC[αMeP]FD[dK](DOTA)-NH2; disulfide 3-9) and `CC(=O)N[C@H](CO)C(=O)N[C@@H](CC(=O)O)C(=O)N[C@H]1CSSC[C@@H](C(=O)N2CCC[C@@]2(C)C(=O)N[C@@H](Cc2ccccc2)C(=O)N[C@@H](CC(=O)O)C(=O)N[C@H](CCCCNC(=O)CN2CCN(CC(=O)O)CCN(CC(=O)O)CCN(CC(=O)O)CC2)C(N)=O)NC(=O)[C@H](CC(N)=O)NC(=O)[C@H](Cc2c[nH]c3ccccc23)NC(=O)[C@H](CCC(N)=O)NC(=O)[C@H](C2CCCC2)NC(=O)[C@H](Cc2cccc3ccccc23)NC1=O` [compound 141, Ac-(D-Ser)-D-C(3)-(1Nal)-(cPenG)-Q-W-N-C(3)-(aMe-P)-F-D-D-Lys(DOTA)-CONH2] (Ac-[dS]DC[1Nal][Gly(cPent)]QWNC[αMeP]FD[dK](DOTA)-NH2; disulfide 3-9) are within 1.5-fold of each other in Kd: 1.05 nM for the first, 1.18 nM for the second.

Going from `CC(=O)N[C@H](CO)C(=O)N[C@@H](CC(=O)O)C(=O)N[C@H]1CSSC[C@@H](C(=O)N2CCC[C@@]2(C)C(=O)N[C@@H](Cc2ccccc2)C(=O)N[C@@H](CC(=O)O)C(=O)N[C@H](CCCCNC(=O)CN2CCN(CC(=O)O)CCN(CC(=O)O)CCN(CC(=O)O)CC2)C(N)=O)NC(=O)[C@H](CC(N)=O)NC(=O)[C@H](Cc2c[nH]c3ccccc23)NC(=O)[C@H](CCC(N)=O)NC(=O)[C@@H](CC(C)C)NC(=O)[C@H](Cc2cccc3ccccc23)NC1=O` [compound 139, Ac-(D-Ser)-D-C(3)-(1Nal)-(D-Leu)-Q-W-N-C(3)-(aMe-P)-F-D-D-Lys(DOTA)-CONH2] (Ac-[dS]DC[1Nal][dL]QWNC[αMeP]FD[dK](DOTA)-NH2; disulfide 3-9) to `CC(=O)N[C@H](CO)C(=O)N[C@@H](CC(=O)O)C(=O)N[C@H]1CSSC[C@@H](C(=O)N2CCC[C@@]2(C)C(=O)N[C@@H](Cc2ccccc2)C(=O)N[C@@H](CC(=O)O)C(=O)N[C@H](CCCCNC(=O)CN2CCN(CC(=O)O)CCN(CC(=O)O)CCN(CC(=O)O)CC2)C(N)=O)NC(=O)[C@H](CC(N)=O)NC(=O)[C@H](Cc2c[nH]c3ccccc23)NC(=O)[C@H](CCC(N)=O)NC(=O)[C@H](CC2CC2)NC(=O)[C@H](Cc2cccc3ccccc23)NC1=O` [compound 140, Ac-(D-Ser)-D-C(3)-(1Nal)-(cPrA)-Q-W-N-C(3)-(aMe-P)-F-D-D-Lys(DOTA)-CONH2] (Ac-[dS]DC[1Nal][Ala(cPr)]QWNC[αMeP]FD[dK](DOTA)-NH2; disulfide 3-9), the Kd falls from > 30 nM to 1.5 nM.

Compared with `CC(=O)N[C@H](C(=O)N[C@@H](CCCCNC(=O)CN1CCN(CC(=O)O)CCN(CC(=O)O)CCN(CC(=O)O)CC1)C(=O)N[C@@H](CC(=O)O)C(=O)N[C@H]1CSSC[C@@H](C(=O)N2CCC[C@@]2(C)C(=O)N[C@@H](Cc2ccccc2)C(=O)N[C@@H](CC(=O)O)C(N)=O)NC(=O)[C@H](CC(N)=O)NC(=O)[C@H](Cc2c[nH]c3ccccc23)NC(=O)[C@H](CCC(N)=O)NC(=O)[C@H](CC(C)C)NC(=O)[C@H](Cc2cccc3ccccc23)NC1=O)C1CCCCC1` [compound 142, Ac-(Chg)-[L-Lys(DOTA)]-D-C(3)-(1Nal)-L-Q-W-N-C(3)-(aMe-P)-F-D-CONH2] (Ac-[Chg]K(DOTA)DC[1Nal]LQWNC[αMeP]FD-NH2; disulfide 4-10), `CC(=O)N[C@H](C(=O)N[C@@H](CO)C(=O)N[C@@H](CC(=O)O)C(=O)N[C@H]1CSCc2ccc(cc2)CSC[C@@H](C(=O)N2CCC[C@@]2(C)C(=O)N[C@@H](Cc2ccccc2)C(=O)N[C@@H](CC(=O)O)C(=O)N[C@H](CCCCNC(=O)CN2CCN(CC(=O)O)CCN(CC(=O)O)CCN(CC(=O)O)CC2)C(N)=O)NC(=O)[C@H](CC(N)=O)NC(=O)[C@H](Cc2c[nH]c3ccccc23)NC(=O)[C@H](CCC(N)=O)NC(=O)[C@H](CC(C)C)NC(=O)[C@H](Cc2cccc3ccccc23)NC1=O)C1CCCCC1` [compound 145, Ac-(Chg)-S-D-C(pDBX)-(1Nal)-L-Q-W-N-C(2)-(aMe-P)-F-D-D-Lys(DOTA)-CONH2] (Ac-[Chg]SDC[1Nal]LQWNC[αMeP]FD[dK](DOTA)-NH2; linker 4-10 via pXylylene) is higher in Kd: 20.2 nM for the first, > 30 nM for the second. The first binds more tightly here.

`CC(=O)N[C@H](C)C(=O)N[C@@H](CO)C(=O)N[C@@H](CC(=O)O)C(=O)N[C@H]1CSSC[C@@H](C(=O)N2CCC[C@@]2(C)C(=O)N[C@@H](Cc2ccccc2)C(=O)N[C@@H](CC(=O)O)C(=O)N[C@H](CCCCNC(=O)CN2CCN(CC(=O)O)CCN(CC(=O)O)CCN(CC(=O)O)CC2)C(N)=O)NC(=O)[C@H](CC(N)=O)NC(=O)[C@H](Cc2ccc3ccccc3c2)NC(=O)[C@H](CC2CCNCC2)NC(=O)[C@H](CC(C)(C)C)NC(=O)[C@H](Cc2cccc3ccccc23)NC1=O` [compound 146, Ac-(D-Ala)-S-D-C(3)-(1Nal)-(t-Bu-Ala)-[3-(4-piperidinyl)-Ala]-(2Nal)-N-C(3)-(aMe-P)-F -D-D-Lys(DOTA)-CONH2] (Ac-[dA]SDC[1Nal][tBuAla][Ala(piperidin-4-yl)][2Nal]NC[αMeP]FD[dK](DOTA)-NH2; disulfide 4-10) and `CC(=O)N[C@H](C(=O)N[C@@H](CO)C(=O)N[C@@H](CC(=O)O)C(=O)N[C@H]1CSSC[C@@H](C(=O)N2CCC[C@@]2(C)C(=O)N[C@@H](Cc2ccccc2)C(=O)N[C@@H](CC(=O)O)C(=O)N[C@H](CCCCNC(=O)CN2CCN(CC(=O)O)CCN(CC(=O)O)CCN(CC(=O)O)CC2)C(N)=O)NC(=O)[C@H](CC(N)=O)NC(=O)[C@H](Cc2ccc3ccccc3c2)NC(=O)[C@H](CCC(N)=O)NC(=O)[C@H](CC(C)(C)C)NC(=O)[C@H](Cc2cccc3ccccc23)NC1=O)C1CCCCC1` [compound 148, Ac-(Chg)-S-D-C(3)-(1Nal)-(t-Bu-Ala)-Q-(2Nal)-N-C(3)-(aMe-P)-F -D-D-Lys(DOTA)-CONH2] (Ac-[Chg]SDC[1Nal][tBuAla]Q[2Nal]NC[αMeP]FD[dK](DOTA)-NH2; disulfide 4-10) are the same in Kd: 0.29 nM for the first, 0.29 nM for the second.

With `CC(=O)N[C@H](C(=O)N[C@@H](CO)C(=O)N[C@@H](CC(=O)O)C(=O)N[C@H]1CSCc2ccccc2CSC[C@@H](C(=O)N2CCC[C@@]2(C)C(=O)N[C@@H](Cc2ccccc2)C(=O)N[C@@H](CC(=O)O)C(=O)N[C@H](CCCCNC(=O)CN2CCN(CC(=O)O)CCN(CC(=O)O)CCN(CC(=O)O)CC2)C(N)=O)NC(=O)[C@H](CC(N)=O)NC(=O)[C@H](Cc2c[nH]c3ccccc23)NC(=O)[C@H](CCC(N)=O)NC(=O)[C@H](CC(C)C)NC(=O)[C@H](Cc2cccc3ccccc23)NC1=O)C1CCCCC1` [compound 143, Ac-(Chg)-S-D-C(oDBX)-(1Nal)-L-Q-W-N-C(2)-(aMe-P)-F-D-D-Lys(DOTA)-CONH2] (Ac-[Chg]SDC[1Nal]LQWNC[αMeP]FD[dK](DOTA)-NH2; linker 4-10 via oXylylene) the “SPR KD (nM)” value was “slow kon”.
